ChEMBL document CHEMBL1201862, “PubChem BioAssay data set” (2004)
The source made the active and inactive calls.

What was measured:
[1] = target: T1, Protein phosphatase methylesterase 1 (Homo sapiens, UniProt Q9Y570); experiment: Late stage results from the probe development effort to identify inhibitors of the protein methylesterase PME-1: Gel-based Activity-Based Protein Profiling (ABPP) IC50: Purified enzyme.; assay type: functional
[2] = target: T1, Protein phosphatase methylesterase 1; experiment: endogenous PME-1 and serine hydrolase inhibition – cell lysate, mouse brain cytosol, FP-rhodamine, gel ABPP, selectivity assay for PME-1 inhibitor project, dose response, panel member PME-1 Assay Panel member description: Inhibition of endogenously expressed PME-1 (AID 2366)
BJ [3] = experiment: BJ-TERT fibroblast viability loss – cell-based, RAS-independent, luminescence, dose response (AID 1933); assay type: functional; conditions: Homo sapiens
BJ [4] = experiment: cells; assay type: functional, cell-based; conditions: Homo sapiens
BJ [5] = experiment: BJ-TERT-LT-ST fibroblast viability loss – cell-based, RAS-independent, luminescence, dose response (AID 1935); assay type: functional; conditions: Homo sapiens;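 further: BJ fibroblasts immortalized with TERT plus LT and ST oncogenes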
[6] = DRD fibroblast viability loss – cell-based, non-viral oncogenic, luminescence, dose response (AID 1934); assay type: functional; conditions: Homo sapiens
[7] = target: T2, Voltage-dependent T-type calcium channel subunit alpha-1H (Homo sapiens, UniProt O95180); assay type: functional
[8] = target: T2, Voltage-dependent T-type calcium channel subunit alpha-1H; experiment: Inhibitors of T-Type Calcium Channels. [Related pubchem assays (depositor defined):AID449739, AID463087, AID489005, AID493041, AID504579, AID504584, AID504619, AID504628]; assay type: functional
[9] = Trypanosoma cruzi growth suppression in host cells – NIH3T3 host cells, beta-gal luminescence, confirmation (AID 2044); assay type: functional, cell-based;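 further: intracellular parasites grown in NIH/3T3 mouse fibroblasts as host cells; luminescent beta-galactosidase reporter signal from transgenic T. cruzi replicating inside host cells; inhibitors lower the luminescence signal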
[10] = NIH3T3 cell viability loss – ATP luminescence, mouse fibroblasts, counter-screen, dose response (AID 2010); assay type: functional, cell-based;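 further: cells exposed to compound for about 90 hours before reading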
HeLa = experiment: viability loss in HeLa cells – cell-based, 24 h, cherry-picked samples, cytotoxicity control, dose response (AID 504726); assay type: functional; conditions: Homo sapiens;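 further: potency for cytotoxicity as loss of luminescence signal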
Salmon testes DNA = experiment: acridine orange-DNA binding displacement – biochemical, fluorescence polarization, cherry-picked samples, set 2, artefact control for KSHV LANA DNA-binding inhibitor project, dose response (AID 504727); parameters: species or system Salmonidae
[11] = target: FAD-linked sulfhydryl oxidase ALR (Homo sapiens, UniProt P55789); experiment: ALR-catalysed DTT oxidation blockers – biochemical, H2O2 detection, luminescence, cherry-pick, dose response (AID 493248)
[12] = target: Envelope glycoprotein gp160 (Human immunodeficiency virus 1, UniProt Q6QLK5); experiment: cell-free HIV fusion peptide-binding blockers – biochemical, uHTS, fluorescence dequenching, […] (AID 1986)
Staphylococcus aureus = experiment: Inhibitors of Bacterial Quorum Sensing Structure Activity Relationship (SAR) Analysis: Dose Response Assay. [Related pubchem assays: 700, 527 ]; assay type: functional, organism-based
[13] = target: Melanin-concentrating hormone receptor 1 (Homo sapiens, UniProt Q99705); experiment: Late-stage fluorescence-based counterscreen for antagonists of the G-protein coupled receptor 7 (GPR7): cell-based dose response assay to identify antagonists of the melanin-concentrating hormone receptor 1 (MCHR1). [Related pubchem assays (depositor defined):AID1861, AID1880, AID1952, AID2148, AID2251, AID2257, AID485339]; assay type: functional;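 further: stimulated with 30 nM MCH peptide agonist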
[14] = target: T3, Neuropeptides B/W receptor type 1 (Homo sapiens, UniProt P48145); experiment: human NPBW1 receptor blockade, IC50 – cell-based, fluorescence, dose response, late-stage follow-up (AID 463251); assay type: functional
T3 sequence (P48145 whole entry): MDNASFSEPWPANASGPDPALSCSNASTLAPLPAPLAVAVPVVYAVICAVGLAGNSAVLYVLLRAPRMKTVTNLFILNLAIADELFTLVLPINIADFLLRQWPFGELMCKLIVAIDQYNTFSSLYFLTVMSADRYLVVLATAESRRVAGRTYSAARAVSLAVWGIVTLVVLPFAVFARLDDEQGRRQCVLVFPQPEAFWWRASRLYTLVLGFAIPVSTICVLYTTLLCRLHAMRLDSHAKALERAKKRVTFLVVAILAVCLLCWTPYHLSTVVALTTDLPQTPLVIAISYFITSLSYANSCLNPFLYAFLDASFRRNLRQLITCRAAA

T2 sequence (O95180 whole entry): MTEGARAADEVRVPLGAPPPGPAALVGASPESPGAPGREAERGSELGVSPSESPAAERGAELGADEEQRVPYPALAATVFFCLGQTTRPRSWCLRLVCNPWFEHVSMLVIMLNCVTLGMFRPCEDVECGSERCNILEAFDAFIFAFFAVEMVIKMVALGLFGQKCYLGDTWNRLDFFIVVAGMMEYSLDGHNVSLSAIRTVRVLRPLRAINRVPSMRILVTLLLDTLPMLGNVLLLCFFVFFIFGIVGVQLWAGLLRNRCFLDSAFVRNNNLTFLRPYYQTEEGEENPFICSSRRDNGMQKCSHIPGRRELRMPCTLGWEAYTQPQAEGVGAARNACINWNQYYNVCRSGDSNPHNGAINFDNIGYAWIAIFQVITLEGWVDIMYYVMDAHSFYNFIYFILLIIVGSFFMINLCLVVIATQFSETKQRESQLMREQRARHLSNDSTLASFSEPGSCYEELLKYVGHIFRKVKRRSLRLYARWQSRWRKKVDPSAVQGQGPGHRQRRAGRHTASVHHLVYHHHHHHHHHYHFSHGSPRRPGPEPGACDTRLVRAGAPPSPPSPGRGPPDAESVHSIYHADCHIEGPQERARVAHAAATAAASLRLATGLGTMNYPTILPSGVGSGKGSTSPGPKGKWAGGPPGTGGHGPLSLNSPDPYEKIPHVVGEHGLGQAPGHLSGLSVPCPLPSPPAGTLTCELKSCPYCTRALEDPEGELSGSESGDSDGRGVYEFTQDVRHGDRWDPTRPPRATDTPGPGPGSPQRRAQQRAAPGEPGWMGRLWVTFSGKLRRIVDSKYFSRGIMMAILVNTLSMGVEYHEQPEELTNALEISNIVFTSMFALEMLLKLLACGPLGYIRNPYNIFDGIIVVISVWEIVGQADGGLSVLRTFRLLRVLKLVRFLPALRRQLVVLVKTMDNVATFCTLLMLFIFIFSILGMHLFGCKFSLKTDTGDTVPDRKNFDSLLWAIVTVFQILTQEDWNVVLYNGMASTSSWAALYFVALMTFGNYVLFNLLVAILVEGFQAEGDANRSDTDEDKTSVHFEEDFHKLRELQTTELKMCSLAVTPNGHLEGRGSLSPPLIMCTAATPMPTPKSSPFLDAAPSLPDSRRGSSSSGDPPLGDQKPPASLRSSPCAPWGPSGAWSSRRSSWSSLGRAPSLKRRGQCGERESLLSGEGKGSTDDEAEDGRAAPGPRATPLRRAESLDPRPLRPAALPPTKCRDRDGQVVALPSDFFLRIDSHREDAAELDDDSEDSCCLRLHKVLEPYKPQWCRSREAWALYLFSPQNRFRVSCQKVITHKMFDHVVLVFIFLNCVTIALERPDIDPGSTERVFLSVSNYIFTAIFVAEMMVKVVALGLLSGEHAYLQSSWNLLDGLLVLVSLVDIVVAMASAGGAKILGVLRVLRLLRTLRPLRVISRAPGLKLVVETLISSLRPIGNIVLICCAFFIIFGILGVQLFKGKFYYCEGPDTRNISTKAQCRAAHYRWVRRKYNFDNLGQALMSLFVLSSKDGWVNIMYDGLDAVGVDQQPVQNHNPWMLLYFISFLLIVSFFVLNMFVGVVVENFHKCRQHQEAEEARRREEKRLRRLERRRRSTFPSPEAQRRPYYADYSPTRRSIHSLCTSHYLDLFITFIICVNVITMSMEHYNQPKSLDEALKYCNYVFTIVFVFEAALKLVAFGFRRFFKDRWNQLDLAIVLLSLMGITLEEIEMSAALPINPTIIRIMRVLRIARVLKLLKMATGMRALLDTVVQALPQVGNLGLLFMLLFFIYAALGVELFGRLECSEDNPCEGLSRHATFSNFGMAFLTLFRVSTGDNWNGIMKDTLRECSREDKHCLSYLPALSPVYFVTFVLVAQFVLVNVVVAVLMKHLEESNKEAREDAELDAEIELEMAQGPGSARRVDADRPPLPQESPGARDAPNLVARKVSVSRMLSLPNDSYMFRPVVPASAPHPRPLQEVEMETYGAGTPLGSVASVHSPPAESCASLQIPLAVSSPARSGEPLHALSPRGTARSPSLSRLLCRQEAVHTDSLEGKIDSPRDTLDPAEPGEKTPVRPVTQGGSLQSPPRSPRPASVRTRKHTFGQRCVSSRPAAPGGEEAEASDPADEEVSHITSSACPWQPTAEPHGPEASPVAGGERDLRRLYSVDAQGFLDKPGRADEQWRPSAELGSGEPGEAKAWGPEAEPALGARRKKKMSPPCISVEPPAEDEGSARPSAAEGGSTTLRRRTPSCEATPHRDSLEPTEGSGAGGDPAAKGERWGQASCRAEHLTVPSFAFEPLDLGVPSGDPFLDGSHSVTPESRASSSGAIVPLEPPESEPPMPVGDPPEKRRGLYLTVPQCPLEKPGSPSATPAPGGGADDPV
Sequence of FAD-linked sulfhydryl oxidase ALR (P55789 whole entry, the tested form may be a part): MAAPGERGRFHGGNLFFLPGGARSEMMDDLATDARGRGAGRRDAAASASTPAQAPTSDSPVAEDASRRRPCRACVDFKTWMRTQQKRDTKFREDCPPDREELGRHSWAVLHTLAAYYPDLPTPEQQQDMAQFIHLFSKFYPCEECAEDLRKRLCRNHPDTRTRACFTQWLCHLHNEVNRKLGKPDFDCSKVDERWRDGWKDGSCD
T1 sequence (Q9Y570 whole entry): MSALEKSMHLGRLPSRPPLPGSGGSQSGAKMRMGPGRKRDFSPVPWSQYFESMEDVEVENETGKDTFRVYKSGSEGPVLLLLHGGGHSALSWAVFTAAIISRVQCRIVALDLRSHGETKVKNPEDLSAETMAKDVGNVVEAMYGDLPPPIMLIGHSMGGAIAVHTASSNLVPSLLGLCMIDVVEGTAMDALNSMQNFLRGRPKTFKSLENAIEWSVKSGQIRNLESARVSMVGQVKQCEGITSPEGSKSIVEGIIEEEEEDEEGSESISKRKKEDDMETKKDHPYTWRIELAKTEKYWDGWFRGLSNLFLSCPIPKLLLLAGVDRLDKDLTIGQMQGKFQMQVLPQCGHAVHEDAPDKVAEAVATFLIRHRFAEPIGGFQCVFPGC
Sequence of Melanin-concentrating hormone receptor 1 (Q99705 whole entry): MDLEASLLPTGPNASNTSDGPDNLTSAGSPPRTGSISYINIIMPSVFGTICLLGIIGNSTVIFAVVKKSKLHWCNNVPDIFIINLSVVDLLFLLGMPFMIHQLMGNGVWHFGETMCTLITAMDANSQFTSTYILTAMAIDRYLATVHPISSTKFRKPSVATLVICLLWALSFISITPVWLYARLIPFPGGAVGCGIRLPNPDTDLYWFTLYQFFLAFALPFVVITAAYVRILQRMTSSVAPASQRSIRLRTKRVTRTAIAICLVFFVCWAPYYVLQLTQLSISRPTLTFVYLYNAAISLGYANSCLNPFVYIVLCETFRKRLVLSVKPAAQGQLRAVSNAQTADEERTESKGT
Sequence of Envelope glycoprotein gp160 (Q6QLK5 whole entry, the tested form may be a part): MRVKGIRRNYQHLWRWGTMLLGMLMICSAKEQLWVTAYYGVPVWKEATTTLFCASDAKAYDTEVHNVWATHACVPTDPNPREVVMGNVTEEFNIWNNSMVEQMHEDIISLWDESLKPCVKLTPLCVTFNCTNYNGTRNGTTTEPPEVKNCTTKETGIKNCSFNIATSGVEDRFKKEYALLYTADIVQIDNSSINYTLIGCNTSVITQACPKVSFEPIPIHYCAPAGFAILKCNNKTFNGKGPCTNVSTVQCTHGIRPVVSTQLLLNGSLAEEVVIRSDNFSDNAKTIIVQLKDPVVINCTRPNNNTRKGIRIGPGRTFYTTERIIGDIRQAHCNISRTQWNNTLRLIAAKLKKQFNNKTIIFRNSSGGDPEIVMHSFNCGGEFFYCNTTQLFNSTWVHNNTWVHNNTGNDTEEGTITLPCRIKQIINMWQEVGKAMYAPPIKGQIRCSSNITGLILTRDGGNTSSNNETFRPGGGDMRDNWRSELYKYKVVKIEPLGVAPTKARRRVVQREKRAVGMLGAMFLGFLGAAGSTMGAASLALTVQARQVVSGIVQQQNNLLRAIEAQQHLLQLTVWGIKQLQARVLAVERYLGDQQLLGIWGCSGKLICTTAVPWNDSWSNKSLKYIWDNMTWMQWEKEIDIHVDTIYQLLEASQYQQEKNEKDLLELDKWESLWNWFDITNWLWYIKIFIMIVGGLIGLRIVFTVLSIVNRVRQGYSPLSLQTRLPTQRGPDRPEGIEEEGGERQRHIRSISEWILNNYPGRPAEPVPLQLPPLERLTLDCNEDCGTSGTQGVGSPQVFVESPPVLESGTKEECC

## CS(=O)(=O)/C(C#N)=C/c1ccc[nH]1
[1]
  IC50: > 20 µM (not active)
[2]
  IC50: > 20 µM (inactive)

## Clc1ccc(Cn2ncc3c(NCc4ccco4)ncnc32)c(Cl)c1
BJ [3]
  EC50: 9.56 µM (inconclusive)
BJ [4]
  EC50: > 150 µM (not active)
BJ [5]
  EC50: > 150 µM (inconclusive)
[6]
  EC50: 12.3 µM (inconclusive)
[7]
  EC50: 1.99 µM (active)
[8]
  EC50: 9.5 µM (active)

## NNc1nc(-c2ccccc2)cs1
[9]
  EC50: 4.06 µM (active)
[10]
  EC50: 4.75 µM (active)
HeLa
  AC50: > 350 µM (inactive)
Salmon testes DNA
  AC50: 58.7 µM (active)
[11]
  AC50: 5.04 µM (active)

## C/C(=C/CCC(C)C1CCC2(C)C3CCC4C(C)(C)C(=O)CCC4(C)C3=CCC12C)C(=O)O (stereo not drawn)
[12]
  IC50: > 99 µM (inactive)

## COc1c(F)c(F)c(C(=O)O)c(Nc2ccc(C)cc2C)c1F
Staphylococcus aureus
  IC50: 0.579 µM (active)
[11]
  AC50: 15.9 µM (active)

## COC(=O)/C=C/c1cnn(-c2ccc(C(C)C)cc2)c(=O)c1Oc1ccc(OC)cc1
[13]
  IC50: > 20 µM (inactive)
[14]
  IC50: > 20 µM (inactive)
